Reference: publication PMC6508583 (Journal of the American Chemical Society, 2019)
Converted amounts (≈) assume the structure as drawn. Where two headings read alike, the source gives them in different places.

How the values were obtained:
[1] = system: E. coli carrying specific resistance determinants; experiment: Activity against wild-type and engineered E. coli carrying specific AMEs or RMTs; assay type: cell-based; conditions: Escherichia coli
MRSA = experiment: Antibacterial activity against reference strains: MRSA; assay type: cell-based; conditions: Staphylococcus aureus, MRSA
[2] = system: A1555G mutant mitochondrial hybrid ribosome; assay type: biochemical, human; conditions: for Selectivity A1555G: A1555G over wt bacterial ribosome; for IC50 A1555G: in vitro translation inhibition, A1555G mutant mitochondrial hybrid ribosome
[3] = system: Mit13 hybrid ribosome (decoding A site of the human mitochondrial ribosome); assay type: biochemical; conditions: for Selectivity Mit 13: Mit13 over wt bacterial ribosome; for IC50 Mit13: in vitro translation inhibition, Mit13 hybrid ribosome
E coli = experiment: Neutropenic mouse thigh infection model; assay type: in vivo; conditions: dose 3 mg.kg^−1
E. coli = experiment: Antibacterial activity against reference strains: E. coli; conditions: Escherichia coli
[4] = system: wild-type bacterial ribosome; experiment: Cell-free translation assay, wild-type bacterial ribosome; assay type: biochemical; conditions: in vitro translation inhibition
E. cloacae = experiment: Antibacterial activity against reference strains: E. cloacae; assay type: cell-based; conditions: Enterobacter cloacae, read-out: Antibacterial activity (MIC) E. cloacae AG290
[5] = system: Cyt14 hybrid ribosome (decoding A site of the human cytoplasmic ribosome); assay type: biochemical; conditions: for Selectivity Cyt14: Cyt14 over wt bacterial ribosome; for IC50 Cyt 14: in vitro translation inhibition, Cyt14 hybrid ribosome
[6] = system: Mycobacterium tuberculosis clinical isolates; experiment: microbe, parasite or virus in culture; assay type: cell-based; conditions: Mycobacterium tuberculosis, read-out: MIC M. tuberculosis clinical isolates
[7] = system: E coli 70S ribosome (helix 44, A1408); experiment: Quantitative dimethyl sulfate footprinting of the 70S ribosome; assay type: binding; conditions: read-out: apparent Kd; DMS footprinting, % protection of N1 of A1408, E. coli 70S ribosome
Mycobacterium abscessus = experiment: microbe, parasite or virus in culture; assay type: cell-based; conditions: Mycobacteroides abscessus
[8] = read-out: Activity (MIC) E. coli AG006
[9] = read-out: Activity (MIC) E. coli AG007
[10] = read-out: Activity (MIC) E. coli AG008
[11] = read-out: Activity (MIC) E. coli AG009
[12] = read-out: Activity (MIC) E. coli AG036
[13] = read-out: Activity (MIC) E. coli AG103
[14] = read-out: Activity (MIC) E. coli AG105
[15] = read-out: Activity (MIC) E. coli AG166
[16] = read-out: Antibacterial activity (MIC) MRSA AG038
[17] = read-out: Antibacterial activity (MIC) E. coli AG001
[18] = read-out: Antibacterial activity (MIC) E. coli AG003

SMILES | MIC [1, 8] [µg/mL] | MIC [1, 9] [µg/mL] | MIC [1, 10] [µg/mL] | MIC [1, 11] [µg/mL] | MIC [1, 12] [µg/mL] | MIC [1, 13] [µg/mL] | MIC [1, 14] [µg/mL] | MIC [1, 15] [µg/mL] | MIC (MRSA; [16]) [µg/mL] | Selectivity A1555G [2] | IC50 A1555G [2] [µg/mL] | Selectivity Mit 13 [3] | IC50 Mit13 [3] [µg/mL] | MIC (E. coli; [17]) [µg/mL] | MIC (E. coli; [18]) [µg/mL] | IC50 wt [4] [µg/mL] | MIC (E. cloacae) [µg/mL] | Selectivity Cyt14 [5] | IC50 Cyt 14 [5] [µg/mL] | other results
CN[C@@H]1[C@@H](O)[C@@H](O[C@@H]2[C@@H](O)[C@H](O[C@H]3OC(CNCCO)=CC[C@H]3N)[C@@H](N)C[C@H]2NC(=O)[C@@H](O)CCN)OC[C@]1(C)O [Plazomicin, reference compound] | 0.5 to 1 (≈ 0.844 to 1.69 µM) | 2 (≈ 3.37 µM) | 0.5 to 1 (≈ 0.844 to 1.69 µM) | 2 (≈ 3.37 µM) | 1 (≈ 1.69 µM) | > 128 | 1 to 2 (≈ 1.69 to 3.37 µM) | 1 (≈ 1.69 µM) | 2 (≈ 3.37 µM) | 47 | 2.8 (≈ 4.72 µM) | 833 | 50 (≈ 84.4 µM) | 2 (≈ 3.37 µM) | 2 to 4 (≈ 3.37 to 6.75 µM) | 0.06 (≈ 0.101 µM) | 0.5 (≈ 0.844 µM) | 6983 | 419 (≈ 707 µM) | log reduction in colony-forming units (CFUs) compared to vehicle (E coli): similar
NC[C@@H]1O[C@H](O[C@H]2[C@@H](O)[C@H](O[C@@H]3[C@@H](O)[C@H](N)C[C@H](N)[C@H]3O[C@H]3O[C@H](CO)[C@@H](O)[C@H](O)[C@H]3N)O[C@@H]2CO)[C@H](N)[C@@H](O)[C@@H]1O [Compound 1, paromomycin, reference compound] | 1 to 2 (≈ 1.62 to 3.25 µM) | 4 (≈ 6.5 µM) | 2 to 4 (≈ 3.25 to 6.5 µM) | 4 (≈ 6.5 µM) | 32 to 64 (≈ 52 to 104 µM) | 4 (≈ 6.5 µM) | 2 (≈ 3.25 µM) | > 128 | 4 (≈ 6.5 µM) | 270 | 5.4 (≈ 8.77 µM) | 2500 | 50 (≈ 81.2 µM) | 2 to 4 (≈ 3.25 to 6.5 µM) | 8 to 16 (≈ 13 to 26 µM) | 0.02 (≈ 0.0325 µM) | 2 (≈ 3.25 µM) | 470 | 9.4 (≈ 15.3 µM) | MIC (MRSA; read-out: Antibacterial activity (MIC) MRSA AG042): > 256 µg/mL; MIC [6]: 2 to 4 µg/mL (≈ 3.25 to 6.5 µM); Kd [7]: 590 ± 50 nM; MIC (Mycobacterium abscessus; read-out: MIC M. abscessus): 64 µg/mL (≈ 104 µM); MIC (Mycobacterium abscessus; read-out: MIC M. abscessus, AAC(2’) gene deleted): 16 µg/mL (≈ 26 µM)
